One assay relates to MCF7 cells. Description: Inhibitory effects on MCF7 cell proliferation (CellTiter-Glo). The assay is classed as cell-based. The following applies: Homo sapiens, 144 h, 6 days incubation, read-out: IC50 (nM), inhibition of MCF7 cell proliferation. The protocol: (§1) MCF7 cells (TCHu74, National Collection of Authenticated Cell Cultures) were cultured in an MEM (GE Healthcare, SH30024.01) complete medium containing 10% fetal bovine serum. On day 1 of the experiment, MCF7 cells were seeded into a 96-well plate at a density of 3,000 cells/well using MEM containing 2% fetal bovine serum, with each well containing 135 μL of cell suspension. The plate was incubated in a 37° C., 5% CO2 cell incubator overnight. The next day, different concentrations of test compounds prepared in media were added at 15 μL/well. The final concentrations of the compounds were 9 concentration points obtained by 4-fold serial dilution from 1000 nM. A blank control containing 0.5% DMSO was set up. The plate was incubated in a 37° C., 5% CO2 cell incubator for 6 days. On day 8, the 96-well cell culture plate was taken out, and CellTiter-Glo® Luminescent Cell Viability Assay (Promega, G7573) was added at 75 μL/well. After the plate was left at room temperature for 10 min, luminescence signal readings were taken on a multilabel microplate reader (PerkinElmer, VICTOR 3). The IC50 values for the inhibitory activity of the compounds were calculated from the concentrations of the compounds and the luminescence signal readings using Graphpad Prism software.
(In general: In ATP-based viability assays light output follows the ATP content of the culture.)

For another assay, the system named is MCF7/ERα Y537S cells. Description: Inhibitory activity on proliferation of ERα mutant-expressing MCF7 cells. The assay is classed as cell-based. The following applies: Homo sapiens, 144 h, 6 days incubation, CellTiter-Glo, read-out: IC50 (nM), inhibition of proliferation of ERα mutant-expressing MCF7 cells. On the procedure:
The objective of this experiment was to determine the inhibitory activity of the compounds of the present disclosure on the proliferation of ERα mutant-expressing MCF7 cells.
as §1, with “cells expressing the ERα Y537S mutant were constructed by lentiviral infection. MCF7/ERα Y537S cells” for “cells (TCHu74, National Collection of Authenticated Cell Cultures)”, “bovine serum and […] puromycin.” for “bovine serum.”, “experiment,” for “experiment, MCF7”, “135 µL” for “135 μL”, “75 µL/well.” for “75 μL/well.”

Take `CC[C@H]1CCc2cc(O)ccc2[C@H]1c1ccc(N2CCC(CN3CCN(c4ccc5c(c4)CN([C@H]4CCC(=O)NC4=O)C5=O)CC3)CC2)cc1` [Example 28, (S)-3-(5-(4-((1-(4-((1R,2S)-6-Hydroxy-2-ethyl-1,2,3,4-tetrahydronaphthalen-1-yl)phenyl)piperidin-4-yl)methyl)piperazin-1-yl)-1-oxoisoindolin-2-yl)piperidine-2,6-dione]: the IC50 in the assay with MCF7 cells was 1.51 nM; with MCF7/ERα Y537S cells it was 5.21 nM.

On to `O=C1CC[C@H](N2Cc3cc(N4CCN(CC5CCN(c6ccc([C@@H]7c8ccc(O)cc8CC[C@@H]7Cc7ccccc7)cc6)CC5)CC4)ccc3C2=O)C(=O)N1` [Example 30, (S)-3-(5-(4-((1-(4-((1R,2R)-2-Benzyl-6-hydroxy-1,2,3,4-tetrahydronaphthalen-1-yl)phenyl)piperidin-4-yl)methyl)piperazin-1-yl)-1-oxoisoindolin-2-yl)piperidine-2,6-dione], for which the figures for the IC50 in the assay on MCF7 cells and in the assay with MCF7/ERα Y537S cells were 3.02 nM and 12.7 nM, respectively.

Take `CC(C)CC[C@H]1CCc2cc(O)ccc2[C@H]1c1ccc(N2CCC(CN3CCN(c4ccc5c(c4)CN([C@H]4CCC(=O)NC4=O)C5=O)CC3)CC2)cc1` [Example 40, (S)-3-(5-(4-((1-(4-((1R,2S)-6-Hydroxy-2-isopentyl-1,2,3,4-tetrahydronaphthalen-1-yl)phenyl)piperidin-4-yl)methyl)piperazin-1-yl)-1-oxoisoindolin-2-yl)piperidine-2,6-dione]: the IC50 in the assay with MCF7 cells came to 3.17 nM; with MCF7/ERα Y537S cells, 8.89 nM.

Turning to `O=C1CCC(N2Cc3cc(N4CCN(CC5CCN(c6ccc([C@@H]7c8ccc(O)cc8CC[C@@H]7C7CCC(F)(F)CC7)cc6)CC5)CC4)ccc3C2=O)C(=O)N1` (mixture of isomers) [Example 10, 3-(5-(4-((1-(4-((1R,2R)-2-(4,4-Difluorocyclohexyl)-6-hydroxy-1,2,3,4-tetrahydronaphthalen-1-yl)phenyl)piperidin-4-yl)methyl)piperazin-1-yl)-1-oxoisoindolin-2-yl)piperidine-2,6-dione], the IC50 in the assay on MCF7 cells is 0.3 nM; with MCF7/ERα Y537S cells, 1.38 nM.

Turning to `CC(C)[C@H]1CCc2cc(O)ccc2[C@H]1c1ccc(N2CCC(CN3CCN(c4ccc5c(c4)CN([C@H]4CCC(=O)NC4=O)C5=O)CC3)CC2)cc1` [Example 24, (S)-3-(5-(4-((1-(4-((1R,2R)-6-Hydroxy-2-isopropyl-1,2,3,4-tetrahydronaphthalen-1-yl)phenyl)piperidin-4-yl)methyl)piperazin-1-yl)-1-oxoisoindolin-2-yl)piperidine-2,6-dione], the IC50 with MCF7 cells was 1.21 nM; with MCF7/ERα Y537S cells, 5.44 nM.

For the compound `O=C1CCC(N2Cc3cc(N4CCN(CC5CCN(c6ccc([C@H]7c8ccc(O)cc8CC[C@H]7C7CCOCC7)c(F)c6)CC5)CC4)ccc3C2=O)C(=O)N1` (mixture of isomers) [Example 12-2, 3-(5-(4-((1-(3-Fluoro-4-((1R,2S)-6-hydroxy-2-(tetrahydro-2H-pyran-4-yl)-1,2,3,4-tetrahydronaphthalen-1-yl)phenyl)piperidin-4-yl)methyl)piperazin-1-yl)-1-oxoisoindolin-2-yl)piperidine-2,6-dione], the IC50 with MCF7 cells was found to be 13.7 nM; in the assay with MCF7/ERα Y537S cells it was 39.4 nM.

As to `CCC(CC)C[C@H]1CCc2cc(O)ccc2[C@H]1c1ccc(N2CCC(CN3CCN(c4ccc5c(c4)CN([C@H]4CCC(=O)NC4=O)C5=O)CC3)CC2)cc1` [Example 38, (S)-3-(5-(4-((1-(4-((1R,2R)-6-Hydroxy-2-(2-ethylbutyl)-1,2,3,4-tetrahydronaphthalen-1-yl)phenyl)piperidin-4-yl)methyl)piperazin-1-yl)-1-oxoisoindolin-2-yl)piperidine-2,6-dione], the IC50 in the assay with MCF7 cells amounted to 4.64 nM; in the assay with MCF7/ERα Y537S cells, 13.8 nM.

With `O=C1CC[C@H](N2Cc3cc(N4CCN(CC5CCN(c6ccc([C@@H]7c8ccc(O)cc8CC[C@@H]7CC7CCC7)cc6)CC5)CC4)ccc3C2=O)C(=O)N1` [Example 35, (S)-3-(5-(4-((1-(4-((1R,2R)-2-(Cyclobutylmethyl)-6-hydroxy-1,2,3,4-tetrahydronaphthalen-1-yl)phenyl)piperidin-4-yl)methyl)piperazin-1-yl)-1-oxoisoindolin-2-yl)piperidine-2,6-dione], the IC50 in the assay with MCF7 cells worked out at 3 nM; with MCF7/ERα Y537S cells it was 8.48 nM.

As for `O=C1CCC(N2Cc3cc(N4CCN(CC5CCN(c6ccc(C7c8ccc(O)cc8CCC78CCCC8)cc6)CC5)CC4)ccc3C2=O)C(=O)N1` (stereo not shown) [Example 1, 3-(5-(4-((1-(4-(6′-Hydroxy-3′,4′-dihydro-1′H-spiro[cyclopentane-1,2′-naphthalen]-1′-yl)phenyl)piperidin-4-yl)methyl)piperazin-1-yl)-1-oxoisoindolin-2-yl)piperidine-2,6-dione], the IC50 was found to be 6.15 nM in the assay on MCF7 cells and 14.9 nM with MCF7/ERα Y537S cells.

As to `O=C1CCC(N2Cc3cc(N4CCN(CC5CCN(c6ccc([C@H]7c8ccc(O)cc8CCC78CCC8)cc6)CC5)CC4)ccc3C2=O)C(=O)N1` (mixture of isomers) [Example 23-2, 3-(5-(4-((1-(4-((S)-6′-Hydroxy-3′,4′-dihydro-1′H-spiro[cyclobutane-1,2′-naphthalen]-1′-yl)phenyl)piperidin-4-yl)methyl)piperazin-1-yl)-1-oxoisoindolin-2-yl)piperidine-2,6-dione], the IC50 with MCF7 cells was 20 nM; with MCF7/ERα Y537S cells it was 72.1 nM.

`O=C1CCC(N2Cc3cc(N4CCN(CC5CCN(c6ccc([C@@H]7c8ccc(O)cc8CC[C@@H]7C7CCCCC7)cc6)CC5)CC4)ccc3C2=O)C(=O)N1` (mixture of isomers) [Example 15-1, 3-(5-(4-((1-(4-((1R,2R)-2-Cyclohexyl-6-hydroxy-1,2,3,4-tetrahydronaphthalen-1-yl)phenyl)piperidin-4-yl)methyl)piperazin-1-yl)-1-oxoisoindolin-2-yl)piperidine-2,6-dione]: the IC50 with MCF7 cells is 0.46 nM; in the assay with MCF7/ERα Y537S cells, 2.18 nM.

Turning to `O=C1CCC(N2Cc3cc(N4CCN(CC5CCN(c6ccc([C@@H]7c8ccc(O)cc8CC[C@@H]7CC7CC7)cc6)CC5)CC4)ccc3C2=O)C(=O)N1` (stereo in doubt) [Example 34, (S)-3-(5-(4-((1-(4-((1R,2R)-2-(Cyclopropylmethyl)-6-hydroxy-1,2,3,4-tetrahydronaphthalen-1-yl)phenyl)piperidin-4-yl)methyl)piperazin-1-yl)-1-oxoisoindolin-2-yl)piperidine-2,6-dione], the IC50 in the assay with MCF7 cells turned out to be 1.51 nM; in the assay with MCF7/ERα Y537S cells, 19.2 nM.

Consider `CC1(C)CCc2cc(O)ccc2[C@H]1c1ccc(N2CCC(CN3CCN(c4ccc5c(c4)CN(C4CCC(=O)NC4=O)C5=O)CC3)CC2)cc1` (mixture of isomers) [Example 25-1, 3-(5-(4-((1-(4-((R)-6-Hydroxy-2,2-dimethyl-1,2,3,4-tetrahydronaphthalen-1-yl)phenyl)piperidin-4-yl)methyl)piperazin-1-yl)-1-oxoisoindolin-2-yl)piperidine-2,6-dione], for which the IC50 in the assay with MCF7 cells was 2.46 nM; with MCF7/ERα Y537S cells it was 12.9 nM.

Regarding `O=C1CCC(N2Cc3cc(N4CCN(CC5CCN(c6ccc([C@@H]7c8ccc(O)cc8CCC78CCCC8)cc6F)CC5)CC4)ccc3C2=O)C(=O)N1` (stereo in doubt) [Example 36, (S)-3-(5-(4-((1-(2-Fluoro-4-((R)-6′-hydroxy-3′,4′-dihydro-1′H-spiro[cyclopentane-1,2′-naphthalen]-1′-yl)phenyl)piperidin-4-yl)methyl)piperazin-1-yl)-1-oxoisoindolin-2-yl)piperidine-2,6-dione], the IC50 with MCF7 cells amounted to 1.56 nM; in the assay on MCF7/ERα Y537S cells, 8.35 nM.

The record behind these values is patent publication US20250099596A1, “TETRAHYDRONAPHTHALENE COMPOUND, AND PREPARATION METHOD THEREFOR AND USE THEREOF IN MEDICINE” (Jiangsu Hengrui Pharmaceuticals Co., Ltd., priority 2021, published 2025).
